# Assay results: patent US20090176817A1, “Method of Treatment of Diarrhea-Predominant Irritable Bowel Syndrome in a Subject” (priority 2005, published 2009)
# Marks after values point to notes of the source that are not given here.
# Legend:
# [1] = Study S.241.1.109: interaction with fluvoxamine 50 mg QD; format: in vivo, human; conditions: both, human, in vivo
# Procedure: (§1) In an open-label, randomized, parallel-group study in three groups of 12 healthy, male and female subjects (aged 19 to 45 years), subjects received a 2 mg single dose of cilansetron on Day 1, 2 mg TID on Days 2-13, and a 2 mg single dose on Day 14. […] All morning doses of cilansetron and enzyme inhibitors were administered immediately after a standard breakfast. […] For each treatment group, log-transformed cilansetron AUC(0-τ) and Cmax values on Day 14 (cilansetron+enzyme inhibitor) were compared statistically versus values on Day 7 (cilansetron alone).
# FIG. 42, FIG. 43, and FIG. 44 present geometric mean steady-state plasma concentration-time profiles for cilansetron and its 4-hydroxy metabolites in the absence and presence of concomitant fluvoxamine.
# [2] = Study S.241.1.109: interaction with paroxetine 20 mg QD; format: in vivo, human; conditions: in vivo
# Procedure: as §1
# FIG. 50, FIG. 51, and FIG. 52 present geometric mean steady-state plasma concentration-time profiles for cilansetron and its 4-hydroxy metabolites in the absence and presence of concomitant paroxetine. […] These increases in exposure are not clinically significant.
# [3] = Study S.241.1.103: 14C mass balance, 8 mg oral and IV; format: in vivo, human; conditions: human, in vivo
# Procedure: The extent of absorption, distribution, metabolism, and elimination of cilansetron has been examined in an open-label, randomized, two period, crossover, mass balance study in 6 healthy male subjects who were treated with a single oral and single […] (30-minute infusion) of 8 mg ^14C-labeled (50 K μCi) cilansetron, with a washout of at least 2 weeks between periods. The ^14C-cilansetron was appropriately labeled in the aromatic ring and the label was therefore not metabolically labile. Serial blood samples, urine collection, and fecal collection were performed up to 144 hours following each dose. ^14C-radioactivity was measured in plasma, whole blood, urine, and feces, and unchanged cilansetron was measured in plasma and urine. Identification of metabolites of cilansetron was performed in plasma, urine, and feces. The results of this study are presented in Table 2.7.2.3.15 and the mean concentration-time plots for ^14C-radioactivity and unchanged cilansetron are shown in FIG. 24 and FIG. 25.
# Cilansetron and metabolite profiles in plasma, urine, and feces were evaluated using HPLC separation followed by determination of radioactivity using scintillation counting. Cilansetron, (4R)-hydroxy cilansetron, and (4S)-hydroxy cilansetron accounted for 29.3%, 25.7%, and 13.8% of the total radioactivity, respectively, in plasma at 6 hours after oral administration, and for 46.2%, 20.0% and 14.1%3 of the total radioactivity in plasma at 3 hours after IV administration. The cumulative percent of cilansetron and 4-hydroxy metabolites excreted in urine over a 48-hour interval following dosing was 0.5% and 32.8% of the dose, respectively, following oral dosing, and 1.1% and 31.9% of the dose following IV dosing. In the case of fecal excretion over a 96-hour postdose, cilansetron, (4R)-hydroxy cilansetron, and (4S)-hydroxy cilansetron accounted for 1.2%, 6.9%, and 4.6% of the dose following oral administration, and 1.3%, 5.1%, and 11.3% of the dose following IV administration.
# human P-glycoprotein = biological target: T1, human P-glycoprotein (Homo sapiens, UniProt P08183); test: Study K.241.6026: in vitro transport by P-glycoprotein in PK 1 LLC MDR cells; format: in vitro ADME; conditions: human
# T1 construct: expressed in transfected cells; host or cells: PK 1 LLC MDR cells (LLC-PK1 porcine kidney cells expressing human MDR1, by own knowledge)
# T1 sequence (P08183 whole entry): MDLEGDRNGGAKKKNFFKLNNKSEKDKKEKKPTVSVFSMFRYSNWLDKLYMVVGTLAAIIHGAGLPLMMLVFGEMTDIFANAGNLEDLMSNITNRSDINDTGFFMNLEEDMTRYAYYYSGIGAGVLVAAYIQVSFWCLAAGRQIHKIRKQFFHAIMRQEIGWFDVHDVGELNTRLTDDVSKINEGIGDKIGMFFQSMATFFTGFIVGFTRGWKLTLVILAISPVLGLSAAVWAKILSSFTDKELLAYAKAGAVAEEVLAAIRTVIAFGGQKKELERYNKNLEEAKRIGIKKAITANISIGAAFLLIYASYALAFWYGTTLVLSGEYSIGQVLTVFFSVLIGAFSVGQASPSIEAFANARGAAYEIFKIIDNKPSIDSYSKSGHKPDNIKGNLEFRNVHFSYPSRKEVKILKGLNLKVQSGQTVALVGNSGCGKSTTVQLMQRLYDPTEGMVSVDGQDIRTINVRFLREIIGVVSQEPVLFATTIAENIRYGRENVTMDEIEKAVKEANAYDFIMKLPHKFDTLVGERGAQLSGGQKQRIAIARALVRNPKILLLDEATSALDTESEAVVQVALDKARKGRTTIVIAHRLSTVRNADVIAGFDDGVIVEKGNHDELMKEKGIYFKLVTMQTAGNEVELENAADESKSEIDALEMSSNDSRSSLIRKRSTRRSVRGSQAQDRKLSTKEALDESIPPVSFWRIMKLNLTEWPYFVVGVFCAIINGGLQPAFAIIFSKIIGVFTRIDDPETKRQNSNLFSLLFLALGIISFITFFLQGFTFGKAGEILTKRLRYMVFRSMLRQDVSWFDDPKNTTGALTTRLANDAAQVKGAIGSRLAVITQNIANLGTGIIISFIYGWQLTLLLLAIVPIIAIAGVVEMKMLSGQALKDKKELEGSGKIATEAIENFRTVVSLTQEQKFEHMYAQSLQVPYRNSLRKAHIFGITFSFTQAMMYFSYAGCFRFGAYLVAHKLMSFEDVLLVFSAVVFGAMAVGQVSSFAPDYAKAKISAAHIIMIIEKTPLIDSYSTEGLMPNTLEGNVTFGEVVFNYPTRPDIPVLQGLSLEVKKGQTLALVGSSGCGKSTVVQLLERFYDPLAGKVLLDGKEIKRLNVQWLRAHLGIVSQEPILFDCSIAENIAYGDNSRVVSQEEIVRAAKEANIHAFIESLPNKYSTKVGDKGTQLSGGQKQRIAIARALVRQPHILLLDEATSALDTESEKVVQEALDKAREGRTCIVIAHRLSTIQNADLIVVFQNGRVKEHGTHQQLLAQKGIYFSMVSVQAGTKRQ
# [4] = Study S.241.1.109: single and multiple dose pharmacokinetics 2 mg TID; format: in vivo, human; conditions: human, in vivo
# Procedure: In an open-label, randomized, parallel-group study in 36 healthy, male and female subjects (19-45 years), subjects received a 2 mg single dose of cilansetron on Day 1 and 2 mg TID on Days 2-7. The morning doses on Days 1 and 7 were administered immediately after a standard breakfast. Serial blood samples for the measurement of single-dose and steady-state pharmacokinetics of cilansetron and its main metabolites, (4R)-hydroxy cilansetron and (4S)-hydroxy cilansetron, were collected on Day 1 (single dose) up to 24 hours postdose and on Day 7 (multiple dose) up to 8 hours postdose.
smiles,measurement,setting,value
"Cc1nccn1C[C@H]1CCc2c(c3cccc4c3n2CCC4)C1=O [Cilansetron, (R)-(−)-4,5,6,8,9,10-hexahydro-10-[(2-methyl-1H-imidazol-1-yl)methyl]-11H-pyrido-[3,2,1-jk]-carbazol-11-one]",Increase in cilansetron exposure with fluvoxamine,[1],3.7-6.6 fold
same,Mean AUC increase with fluvoxamine,[1],6.6 fold
same,Mean Cmax increase with fluvoxamine,[1],3.7 fold
same,Mean AUC increase with paroxetine,"[2]; both, human",20%
same,Mean Cmax increase with paroxetine,"[2]; both, human",36%
same,Effect of paroxetine,[2],no significant effect
same,AUC(0-last),[3]; iv,999 (223) ng[-equiv] · h/mL
same,AUC(0-inf),"[3]; iv, 8 mg",1217 (299) ng[-equiv] · h/mL
same,AUC(0-last),[3]; po,908 (244) ng[-equiv] · h/mL
same,CL/F (blood),[3]; po,2857 (1912) mL/min
same,Cmax,[3]; po,171 (63) ng[-equiv]/mL
same,AUC(0-inf),"[3]; po, 8 mg",1047 (248) ng[-equiv] · h/mL
same,Absorption calculated from percentage renal recovery,[3]; male,99.8%
same,Share of urinary excretion within 24 hours of dosing,[3]; male,≥ 87%
same,Dose recovered in urine as unchanged drug,"[3]; male, 144 h",< 1%
same,AUC(0-inf),"[3]; male, iv",209 ng·h/mL
same,AUC(0-t),"[3]; male, iv",200 ng·h/mL
same,CL (plasma),"[3]; male, iv",118 (42) mL/min
same,Cumulative percent excreted in urine over 48 hours,"[3]; male, iv",1.1 % of the dose
same,Fecal excretion over 96 hours,"[3]; male, iv",1.3 % of the dose
same,Radioactivity in blood cells,"[3]; male, iv",9.5 (4.1) %
same,"Recovery, Fecal","[3]; male, iv",28.9 (1.8) %
same,"Recovery, Total","[3]; male, iv",92.3 (1.5) %
same,T½,"[3]; male, iv",107 h
same,Vd,"[3]; male, iv",85.3 L
same,Vz,"[3]; male, iv",1001 (162) L
same,half-life,"[3]; male, iv",1.51 h
same,Share of total radioactivity in plasma,"[3]; male, iv, 3 h",46.2%
same,clearance,"[3]; male, iv, CL (blood)",1040 mL/min
same,clearance,"[3]; male, iv, CL (plasma)",655 mL/min
same,AUC(0-inf),"[3]; male, po",98.2 ng·h/mL
same,AUC(0-t),"[3]; male, po",91.4 ng·h/mL
same,Absorption of orally administered cilansetron,"[3]; male, po",higher than 90%
same,Cmax,"[3]; male, po",52.9 ng/mL
same,Cumulative percent excreted in urine over 48 hours,"[3]; male, po",0.5 % of the dose
same,Fecal excretion over 96 hours,"[3]; male, po",1.2 % of the dose
same,Radioactivity in blood cells,"[3]; male, po",10.5 (5.7) %
same,"Recovery, Fecal","[3]; male, po",27.5 (3.2) %
same,"Recovery, Total","[3]; male, po",90.8 (2.2) %
same,Tmax,"[3]; male, po",0.51 h
same,Vd/F,"[3]; male, po",155 L
same,Vz/F,"[3]; male, po",836 (275) L
same,half-life,"[3]; male, po",1.23 h
same,Share of total radioactivity in plasma,"[3]; male, po, 6 h",29.3%
same,bioavailability,"[3]; male, po, Absolute Bioavailability",49%
same,Concentration required to saturate P-glycoprotein in vitro,human P-glycoprotein,above 1000 ng/mL
same,Membrane Passage,human P-glycoprotein; 3 h,33%
same,P-gp Factor,human P-glycoprotein; 3 h,3
same,Tmax,[4]; both sexes,1.75 h
same,Tmax at 7 day,[4]; both sexes,1.5 h
same,AUC(0-inf),"[4]; both sexes, 2 mg",22.3 ng·h/mL
same,AUC,"[4]; both sexes, 2 mg, AUC(0-τ)",21 ng·h/mL
same,Cmax,"[4]; both sexes, 2 mg, Cmax",6.63 ng/mL
same,Cmax at 7 day,"[4]; both sexes, 2 mg, Cmax",7.55 ng/mL
same,Cmax,"[4]; both sexes, 2 mg, Plasma Cmax",6 to 7 ng/mL
same,half-life,"[4]; both sexes, 2 mg, T½",1.6 h
same,half-life,"[4]; both sexes, Half-life",1 to 2 h
same,AUC accumulation ratio Day 7/Day 1,[4]; both,105^d %
same,Cmax accumulation ratio Day 7/Day 1,[4]; both,110^e %
same,Linearity Ratio,[4]; both,99%
same,AUC(0-τ),"[4]; both, 2 mg",23.5 (44) ng · h/mL
same,Intersubject % CV for AUC and Cmax,"[4]; both, 2 mg",44-56%
same,T½,"[4]; both, 2 mg",1.64 (18) h
